Experimental data: patent publication EP3521435A1, “A HIGH STRINGENCY SELECTION SYSTEM FOR PROTEIN EXPRESSION IN PROLINE-AUXOTROPHIC CELLS” (Bayer AG, priority 2018, dated 2019)
pKi: −log10 of the molar value.

Experiments:
CHO-K1 cells = assay: Flow cytometric analysis of GFP expression (MFI, high fluorescing cells) in stably selected cell populations; type: cell-based, Chinese hamster; conditions: day 15 post-transfection, pJF1555
Method: To efficiently test the impact of different procedures on improving selection stringency, experimental testing in stable cell populations was performed. As test molecules, enhanced green fluorescent protein (GFP) as well as a human IgG1 were chosen. CHO-K1 cells adapted to growth in suspension in defined medium were obtained from SAFC and cultivated in EX-CELL CD CHO Fusion medium (SAFC 14365C). Custom-made EX-CELL CD CHO Fusion medium without L-Proline (Pro) and without L-Ornithine (Orn) ("proline-free medium") was obtained from SAFC. The expression vector system was based on modified versions of "CET 1019 AS-puro-SceI" and "CET 1019 AD-puro-SceI" for GFP and human IgG1, respectively, from Merck-Millipore, containing the Puromycin selection marker (Puromycin N-acetyl-transferase) known to exert a high selection stringency. To minimize variations in cell populations derived from using different transfections or different vectors, the first series of experiments were conducted using vectors into which a P5CS expression cassette was cloned upstream of a UCOE element, in addition to the Puromycin selection marker present downstream of a gene of interest. This way, it was possible to pool different transfections using the same vector to obtain a common starting point, and split the mixture according to different selection conditions, minimizing any variations that are not due to selection conditions themselves. Expression of long and short isoform of murine P5CS (Protein: Delta-1-pyrroline-5-carboxylate synthase; Gene: Aldh18a1; UniProtKB accession number: Q9Z110-1 & Q9Z110-2) was driven by a SV40 promoter. A SV40 polyadenylation sequence was used at the 3' end of the gene. More details can be found in Table 1. Typically, CHO cells were cultivated in EX-CELL CD CHO Fusion medium containing 6 mM GlutaMAX (Thermo Fisher, 35050-38) ("CD-Fusion medium") at 37 °C with 5% CO2. Cells were grown to logarithmic phase under shaking conditions for transfections. 1e7 cells/cuvette were transfected using nucleofection (Amaxa Nucleofector II, following the manufacturer's recommendations) with 5 µg of linearized DNA. After transfection, cells were taken up in 1 ml medium and transferred into 1 well of a 6 well microtiter plate (MTP) already containing 1 ml medium. The cells were incubated for 24 h without shaking, after which 9 ml medium were added and cells were washed (either in standard or proline-free medium). Multiple transfections were pooled, if applicable. Cells were adjusted to 2e5 viable cells/ml and 10 ml were transferred to T-25 flasks. Reference cell populations were selected using 10 µg/ml Puromycin in CD-Fusion medium. For P5CS-based selection, EX-CELL CD CHO Fusion medium (custom-made, SAFC) containing 6 mM GlutaMAX without proline and without ornithine was used ("proline-free" or "CD-Fusion w/o Pro" medium), with or without additional selection pressure.
Cell viability of the different populations was monitored over time. As soon as cell populations appeared to recover from selection pressure, cells were transferred to Shake Flask or TubeSpins for expansion in suspension under shaking conditions. Subsequently, stable cell populations transfected with IgG were seeded at 2e5 viable cells/ml for batch fermentation without selection pressure (i.e. standard CD-Fusion medium containing proline and no other selective agents). The cells were cultivated for 5-10 days, viable cell densities and productivity were monitored over time. IgG titers were determined using Poros A-HPLC method. Typically, final batch titers were recorded at a time point at which majority of cultures had around 70% viability. Stable cell populations transfected with GFP vector were subjected to analysis by flow cytometry using Guava easyCyte 8HT Benchtop Flow Cytometer (Millipore). 250 µl of cell culture were transferred to 96 MTP and washed with PBS. Dead cells were excluded from analysis using propidium iodide (PI). […]

[1] = target: T1, murine P5CS short isoform (Mus musculus, UniProt Q9Z110); conditions: Hu et al.; cited from earlier work
T1 sequence (Q9Z110 1-793 isoform Q9Z110-2): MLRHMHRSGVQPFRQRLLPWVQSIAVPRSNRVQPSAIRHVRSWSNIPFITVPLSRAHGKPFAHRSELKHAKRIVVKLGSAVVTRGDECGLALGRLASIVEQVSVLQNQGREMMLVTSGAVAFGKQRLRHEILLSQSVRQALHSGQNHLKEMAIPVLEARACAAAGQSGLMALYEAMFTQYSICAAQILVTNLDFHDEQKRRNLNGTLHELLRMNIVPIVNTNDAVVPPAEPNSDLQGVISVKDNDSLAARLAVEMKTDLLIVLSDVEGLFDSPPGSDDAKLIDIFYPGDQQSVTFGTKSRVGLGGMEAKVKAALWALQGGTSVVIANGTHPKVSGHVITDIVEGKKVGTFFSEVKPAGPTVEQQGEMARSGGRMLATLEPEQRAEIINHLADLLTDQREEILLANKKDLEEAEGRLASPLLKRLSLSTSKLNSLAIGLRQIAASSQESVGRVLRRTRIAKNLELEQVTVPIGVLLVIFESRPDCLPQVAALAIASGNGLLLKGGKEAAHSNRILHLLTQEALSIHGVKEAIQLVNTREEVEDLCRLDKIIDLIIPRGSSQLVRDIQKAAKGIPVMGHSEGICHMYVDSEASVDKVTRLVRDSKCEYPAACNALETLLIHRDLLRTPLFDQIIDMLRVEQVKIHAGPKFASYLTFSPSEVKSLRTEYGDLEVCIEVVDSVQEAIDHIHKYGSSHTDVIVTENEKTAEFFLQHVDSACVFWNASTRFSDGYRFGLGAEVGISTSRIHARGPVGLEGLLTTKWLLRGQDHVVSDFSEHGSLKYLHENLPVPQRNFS

[2] = CD-Fusion w/o Pro + 0.2 mM Orn + 10 µg/ml Puromycin
[3] = CD-Fusion w/o Pro + 1 mM Orn + 10 µg/ml Puromycin
[4] = CD-Fusion w/o Pro + 5 mM Orn + 10 µg/ml Puromycin

NCCC[C@H](N)C(=O)O [Orn, L-Ornithine]
Frequency of high fluorescing cells (CHO-K1 cells; CD-Fusion w/o Pro + 0.2 mM Orn): 2.4% | Median Fluorescence Intensity (MFI) (yellow) (CHO-K1 cells; CD-Fusion w/o Pro + 0.2 mM Orn): 3337 | Frequency of high fluorescing cells (CHO-K1 cells; [2]): 4.1% | Median Fluorescence Intensity (MFI) (yellow) (CHO-K1 cells; [2]): 4665 | Frequency of high fluorescing cells (CHO-K1 cells; CD-Fusion w/o Pro + 0.25 mM Ornithine): 6.3% | Frequency of high fluorescing cells (CHO-K1 cells; CD-Fusion w/o Pro + 0.5 mM Ornithine): 4.1% | Frequency of high fluorescing cells (CHO-K1 cells; CD-Fusion w/o Pro + 1 mM Orn): 2.4% | Median Fluorescence Intensity (MFI) (yellow) (CHO-K1 cells; CD-Fusion w/o Pro + 1 mM Orn): 3121 | Frequency of high fluorescing cells (CHO-K1 cells; [3]): 2.8% | Median Fluorescence Intensity (MFI) (yellow) (CHO-K1 cells; [3]): 3739 | Frequency of high fluorescing cells (CHO-K1 cells; CD-Fusion w/o Pro + 1 mM Ornithine): 2.3% | Frequency of high fluorescing cells (CHO-K1 cells; CD-Fusion w/o Pro + 2 mM Ornithine): 0.7% | Frequency of high fluorescing cells (CHO-K1 cells; CD-Fusion w/o Pro + 3 mM Ornithine): 2.6% | Frequency of high fluorescing cells (CHO-K1 cells; CD-Fusion w/o Pro + 4 mM Ornithine): 1.5% | Frequency of high fluorescing cells (CHO-K1 cells; CD-Fusion w/o Pro + 5 mM Orn): 0.5% | Median Fluorescence Intensity (MFI) (yellow) (CHO-K1 cells; CD-Fusion w/o Pro + 5 mM Orn): 1435 | Frequency of high fluorescing cells (CHO-K1 cells; [4]): 6.1% | Median Fluorescence Intensity (MFI) (yellow) (CHO-K1 cells; [4]): 4103 | Frequency of high fluorescing cells (CHO-K1 cells; CD-Fusion w/o Pro + 5 mM Ornithine): 1.7% | pKi [1]: ~3.60
